Data published in ChEMBL document CHEMBL6071209, “Design, Synthesis, and Biological Evaluation of a Series of Spiro Analogues as Novel HPK1 Inhibitors” (ACS Med Chem Lett, 2024).

Columns and labels:
[1] = Clearance in Beagle dog at 1 mg/kg, iv measured upto 24 hrs by LC-MS/MS method; assay type: ADME, organism-based, Canis lupus familiaris; details: in vivo
[2] = Volume of distribution in BALB/c mouse at 1 mg/kg, iv measured upto 24 hrs by LC-MS/MS method; assay type: ADME, organism-based; details: in vivo
in vivo [3] = details: BALB/c, mouse, po, 10 mg/kg
[4] = mouse, in vivo, iv, 1 mg/kg, 24 h
[5] = Volume of distribution in Beagle dog at 1 mg/kg, iv measured upto 24 hrs by LC-MS/MS method; assay type: ADME, organism-based, Canis lupus familiaris; details: in vivo
[6] = dog, in vivo, po, 2 mg/kg, 24 h
[7] = mouse, in vivo, po, 10 mg/kg, 24 h
[8] = Bioavailability in Beagle dog at 1 mg/kg, iv measured upto 24 hrs by LC-MS/MS method; assay type: ADME, organism-based, Canis lupus familiaris; details: in vivo
in vivo [9] = details: Sprague-Dawley, rat, iv, 1 mg/kg
in vivo [10] = details: beagle, dog, po, 2 mg/kg
[11] = Volume of distribution in Sprague-Dawley rat at 1 mg/kg, iv measured upto 24 hrs by LC-MS/MS method; assay type: ADME, organism-based; details: in vivo
in vivo [12] = details: Sprague-Dawley, rat, iv, 1 mg/kg; remark: listed apart in the source
in vivo [13] = details: BALB/c, mouse, iv, 1 mg/kg
[14] = rat, in vivo, po, 10 mg/kg, 24 h
in vivo [15] = details: Sprague-Dawley, rat, iv, 1 mg/kg; remark: listed apart in the source
in vivo [16] = details: BALB/c, mouse, iv, 1 mg/kg; remark: listed apart in the source

| Structure (SMILES) | clearance [1] [L/h/kg] | Vd [2] [L/kg] | half-life at 24 h (in vivo [3]) [h] | F [4] [%] | Vd [5] [L/kg] | AUC/dose [6] [ng·h/mL] | AUC/dose [7] [ng·h/mL] | bioavailability [8] [%] | clearance at 24 h (in vivo [9]) [L/h/kg] | half-life at 24 h (in vivo [10]) [h] | Vd [11] [L/kg] | bioavailability at 24 h (in vivo [12]) [%] | clearance at 24 h (in vivo [13]) [L/h/kg] | AUC/dose [14] [ng·h/mL] | half-life at 24 h (in vivo [15]) [h] | bioavailability at 24 h (in vivo [16]) [%] |
| --- | --- | --- | --- | --- | --- | --- | --- | --- | --- | --- | --- | --- | --- | --- | --- | --- |
| CN(C)Cc1nc(Nc2ccc(-c3cnc4cc(F)ccn34)c3c2C(=O)NC3)ccc1C1CCOCC1 | 6.48 | 5 | 3.7 | 187 | 24.2 | 6.5 | 224.5 | 4.9 | 13.8 | 1.5 | 12.5 | 38 | 8.28 | 31.2 |  |  |
| COC1CCC2(CC1)c1ccc(Nc3ccc(-c4cnc5cc(F)ccn45)c4c3C(=O)NC4)nc1CN2C (configuration not stated) |  |  |  |  |  |  |  |  |  |  |  |  |  | 15.3 | 1 |  |
| O=C1NCc2c(-c3cnc4cc(F)ccn34)ccc(Nc3ccc4c(n3)CN(CCN3CC[C@@H](F)C3)C43CCOCC3)c21 |  |  | 1.4 |  |  |  | 290.2 |  |  |  |  |  | 1.68 | 43.5 | 4.1 | 50 |
